Structures can show the parent of a compound that is named as a salt. Where two headings read alike, the source gives them in different places.
Assays:
[1] = tested on: polymorphous arrhythmias induced by adrenaline petrol-ether; test: Polymorphous arrhythmias induced in the anaesthetised guinea-pig by adrenaline and petrol ether; type: in vivo; conditions: for ED50: Cavia porcellus, ip, read-out: ED50 (dose decreasing by half the duration of the disturbances); for index I = LD50 IV/ED50: Table 1, adrenaline petrol-ether, guinea-pig ED50, mouse LD50; for RELATIVE ACTIVITY: Table 1, relative to cetiedil = 1
From the text: Adrenaline in high dosage is a powerful arrhythmogenic stimulus to a myocardia induced by petrol ether, as recognized in the guinea-pig by LE MARECHAL J., Thesis Doct.

[2] = tested on: chloroform-induced ventricular fibrillation; test: Chloroform-induced ventricular fibrillation in the mouse; type: in vivo
From the text: In this technique first described by LAWSON, J. W. in J. Pharm. Exp. Ther. 1968, 160, 22 and Vargaftig, B. B. et al in Eur. J. Pharmacol. 1969, 6, 49, the inhalation of chloroform vapour produced in the mouse apnea followed by ventricular fibrillation.
The mechanism of this technique remains unknown.

[3] = in vivo; conditions: mouse, iv
[4] = tested on: ventricular fibrillation induced by CaCl2; test: Calcium (CaCl2) induced ventricular fibrillation in the anaesthetized rat, Malinow's technique; type: in vivo; conditions: for index LD50/AD50 (ventricular fibrillation): Table 2; for RELATIVE ACTIVITY (ventricular fibrillation): Table 2, relative to cetiedil = 1; for RELATIVE ACTIVITY (death): Table 3, relative to cetiedil = 1
Experimental: According to MALINOW, M. R., et coll. Acta. Physiol Latino. Americ.
Using the anaesthetized rat, 200 mg/kg of CaCl2 was injected two minutes after the substances to be tested. The ECG was recorded continuously in lead II.

[5] = tested on: rabbit cornea oculo-palpebral reflex; type: in vivo; conditions: for TOTAL DEGREE OF ANAESTHESIA FOR 60 minutes: rabbit cornea, 1.00 g./100, HCl salt, total 13 no anaesthesia, 1300 complete; for local anaesthetic effect compared with cetiedil 0.5%: rabbit
From the text: For the purpose of this study, the classical technique of REGNIER J., Thesis Doct. […] This consists of repeating touching of the rabbit cornea until an oculo-palpebral reflex is obtained. It should be noted that […], in common with the reference substances, was used in the form of the HCl Salt.

[6] = tested on: chloroform-induced ventricular fibrillation; conditions: mouse, chloroform test, IP; other substances from Linee thesis 1975; cited from earlier work
[7] = tested on: isolated guinea-pig atrial; test: Stimulated isolated guinea pig atrial (technique of Dawes); type: cell-based
From the text: (§1) The technique of DAWES (modified by ALLIES ET AL.) was used with the isolated guinea-pig atrial, and the technique of DUCHENE-MARULLAZ, J. Pharmacol. Paris, 1970, 1, 539, in the anaesthetized dog. This method is used to study the permeability of atrio-ventricular conduction, and thus more precisely conduction at the level of Tawara's nod.

[8] = tested on: atrio-ventricular conduction; test: Atrio-ventricular conduction in the anaesthetized dog (Duchene-Marullaz); type: in vivo
From the text: as §1

[9] = tested on: rat aortic fragments; test: Contraction of rat aorta fragment induced by potassium depolarisation; type: cell-based; conditions: mean ± SD, potassium depolarisation
Experimental: Fragments of aorta removed from rats are immersed in survival fluid in the presence of carbogene at 37° C. By modifying the ionic equilibrium of the survival medium, it was possible to study the effects of […] on contraction of the aortic fragments induced by depolarisation with potassium or calcium.

[10] = tested on: ventricular tachycardia induced by Ouabain; test: Ouabain induced ventricular tachycardia in the dog (Lucchesi and Hardman); type: in vivo; conditions: at the average effective dose
From the text: The method used is that of […] and HARDMAN, J. Pharmacol. Exp. Ther. 1961, 132, 372-381. Ventricular tachycardia was obtained by the sequential administration of Ouabain until a permanent ventricular tachycardia developed. Following observation of the effect of the substance, the reappearance of this ventricular tachycardia following the injection of insulin was confirmed, thereby showing the persistence within the heart of a toxic dose of Ouabain (Average dose of Ouabain 71.25 γ kg IV).

[11] = Rattus norvegicus, iv, read-out: AD50 protection against death
[12] = Rattus norvegicus, iv, read-out: AD 50 protection against ventricular fibrillation
[13] = guinea-pig, urethane 1.2 g/kg IP, substance 5 minutes before intoxication
[14] = mouse, chloroform vapour inhalation, IP, read-out: ED50
[15] = anaesthetized rat, CaCl2 200 mg/kg IV two minutes after substance, read-out: AD 50 protection against ventricular fibrillation

Compound: CC[C@H]1[C@@H]2C[C@H]3[C@@H]4N(C)c5ccccc5[C@]45C[C@@H]([C@H]2[C@H]5O)N3[C@@H]1O [Ajmaline]
- ED50 [1]: 0.6 mg/kg
- index I = LD50 IV/ED50 [1]: 43.33
- RELATIVE ACTIVITY [1]: 0.91
- ED50 ([2]; Mus musculus, ip): 6.6 mg/kg
- LD50 [3]: 26 mg/kg
- ED50 [4, 11]: > 5 mg/kg
- ED50 [4, 12]: 2.25 mg/kg
- index LD50/AD50 (ventricular fibrillation) [4]: 11,56
- RELATIVE ACTIVITY (ventricular fibrillation) [4]: 0,62
- protection against death ([4]; rat, dose of 5 mg/kg): none against death
- protection against ventricular fibrillation ([4]; rat, dose of 5 mg/kg): protected all of the animals against ventricular fibrillation

Compound: CCN(CC)CCNC(=O)c1ccc(N)cc1 [Procainamide]
- ED50 [1, 13]: 1.4 mg/kg
- index I = LD50 IV/ED50 [1]: 75.00
- RELATIVE ACTIVITY [1]: 1.58
- ED50 [2, 14]: 80 mg/kg
- LD50 [3]: 105 mg/kg
- ED50 [4, 11]: 17 mg/kg
- index LD50/AD50 (ventricular fibrillation) [4]: 7,24
- RELATIVE ACTIVITY (ventricular fibrillation) [4]: 0,39
- index LD50/AD50 (death) ([4]; Table 3): 6.18
- RELATIVE ACTIVITY (death) [4]: 0.38
- ED50 [4, 15]: 14.5 mg/kg

Compound: COC(=O)[C@H]1[C@@H](OC(=O)c2ccccc2)C[C@@H]2CC[C@H]1N2C [COCAINE]
- TOTAL DEGREE OF ANAESTHESIA FOR 60 minutes [5]: 706.4
- local anaesthetic effect compared with cetiedil 0.5% ([5]; 1 p.100): same effect

Compound: COC(=O)[C@@H]1[C@H]2C[C@H]3c4[nH]c5ccccc5c4CCN3C[C@@H]2CC[C@@H]1O [Yohimbine]
- ED50 [6]: 10 mg/kg IP

Compound: CN(C)CCCN1c2ccccc2CCc2ccccc21 [Imipramine]
- ED50 [6]: 30 mg/kg IP

Compound: C=C[C@H]1C[N@@]2CC[C@H]1C[C@@H]2[C@@H](O)c1ccnc2ccc(OC)cc12 [Quinidine]
- % DECREASE SPONTANEOUS RATE ([7]; concentration 10^-5): 15%
- % DECREASE m.f.s. (maximum frequency followed by the atrial) ([7]; concentration 10^-5): 25%
- % DECREASE SPONTANEOUS RATE ([7]; concentration 10^-6): 3%
- % DECREASE m.f.s. (maximum frequency followed by the atrial) ([7]; concentration 10^-6): 10%
- % DECREASE SPONTANEOUS RATE ([7]; concentration 10^-7): 0%
- ED50 [2, 14]: 26 mg/kg
- LD50 [3]: 67 mg/kg
- effect on atrio-ventricular conduction after denervation ([8]; anaesthetized dog, denervated): Depression of atrio-ventricular conduction is significant and proportional to the dose administered
- effect on atrio-ventricular conduction ([8]; anaesthetized dog, intact): not changed in the intact animal
- chronotropic effect ([8]; dog): positive or negative action according to whether the dog is intact or denervated
- ED50 [4, 11]: 8 mg/kg
- ED50 [4, 12]: 5.5 mg/kg

Compound: CCN(CC)CCOC(=O)c1ccc(N)cc1 [PROCAINE]
- pD'2 (mean) [9]: 2.55 ± 0.06
- TOTAL DEGREE OF ANAESTHESIA FOR 60 minutes [5]: 61.5
- local anaesthetic effect compared with cetiedil 0.5% ([5]; 1 p.100): only half less active

Compound: C=C[C@H]1C[N@@]2CC[C@H]1C[C@@H]2[C@@H](O)c1ccnc2ccc(OC)cc12 [Quinidine sulfate, reference compound]
- duration of return to sinus rhythm [10]: less than 30 min

Compound: CC(C)N(CCC(C(N)=O)(c1ccccc1)c1ccccn1)C(C)C (stereo not drawn) [DISOPYRAMIDE]
- % DECREASE SPONTANEOUS RATE ([7]; concentration 10^-5): 8%
- % DECREASE m.f.s. (maximum frequency followed by the atrial) ([7]; concentration 10^-5): 18%
- % DECREASE SPONTANEOUS RATE ([7]; concentration 10^-6): 6%
- % DECREASE m.f.s. (maximum frequency followed by the atrial) ([7]; concentration 10^-6): 6%

Compound: CN1[C@@H]2CC[C@H]1C[C@@H](OC(=O)C(CO)c1ccccc1)C2 (stereo partly drawn) [Atropine]
- ED50 [6]: 100 mg/kg IP

Compound: CC(C)NCC(O)COc1cccc2ccccc12 (stereo not drawn) [Propranolol]
- ED50 [1, 13]: 0.38 mg/kg
- RELATIVE ACTIVITY [1]: 1.22
- % DECREASE m.f.s. (maximum frequency followed by the atrial) ([7]; concentration 10^-6): 34%
- % DECREASE m.f.s. (maximum frequency followed by the atrial) ([7]; concentration 10^-7): 7%
- TOTAL DEGREE OF ANAESTHESIA FOR 60 minutes [5]: 876.5
- local anaesthetic effect compared with cetiedil 0.5% ([5]; in vivo): same effect
- ED50 [4, 11]: 3.9 mg/kg
- RELATIVE ACTIVITY (ventricular fibrillation) [4]: 0,36
- RELATIVE ACTIVITY (death) [4]: 0.35
- ED50 [4, 15]: 3.25 mg/kg

— patent US4377592A, “Antiarrhythmic activity of cetiedil” (Innothera, priority 1979, dated 1983)
